From ChEMBL document CHEMBL1921763, “Synthesis and SAR of 2-phenoxypyridines as novel c-Jun N-terminal kinase inhibitors” (Bioorg Med Chem Lett, 2011)

Columns and labels:
[1] = target: Mitogen-activated protein kinase 8 (Homo sapiens, UniProt P45983); experiment: Inhibition of JNK1 using biotinylated-ATF2 as substrate by HTRF assay
[2] = target: Mitogen-activated protein kinase 10 (Homo sapiens, UniProt P53779); experiment: Inhibition of JNK3 using biotinylated-ATF2 as substrate by HTRF assay
[3] = Half life in Sprague-Dawley rat at 1 mg/kg, iv and 2 mg/kg, po; assay type: ADME, organism-based; settings: in vivo
[4] = Plasma clearance in Sprague-Dawley rat at 1 mg/kg, iv and 2 mg/kg, po; assay type: ADME, organism-based
[5] = AUC in Sprague-Dawley rat at 1 mg/kg, iv and 2 mg/kg, po; assay type: ADME, organism-based; settings: plasma
[6] = Oral bioavailability in Sprague-Dawley rat at 2 mg/kg; assay type: ADME, organism-based; settings: in vivo
[7] = Plasma concentration in C57B16 mouse at 10 mg/kg, ip after 2 hrs; assay type: ADME, organism-based; parameters: dose 10 mg/kg, route intraperitoneal
[8] = Drug level in C57B16 mouse brain at 10 mg/kg, ip after 2 hrs; assay type: ADME, organism-based; parameters: dose 10 mg/kg, route intraperitoneal; settings: read-out: Drug uptake

Chain of Mitogen-activated protein kinase 10 (P53779 whole entry): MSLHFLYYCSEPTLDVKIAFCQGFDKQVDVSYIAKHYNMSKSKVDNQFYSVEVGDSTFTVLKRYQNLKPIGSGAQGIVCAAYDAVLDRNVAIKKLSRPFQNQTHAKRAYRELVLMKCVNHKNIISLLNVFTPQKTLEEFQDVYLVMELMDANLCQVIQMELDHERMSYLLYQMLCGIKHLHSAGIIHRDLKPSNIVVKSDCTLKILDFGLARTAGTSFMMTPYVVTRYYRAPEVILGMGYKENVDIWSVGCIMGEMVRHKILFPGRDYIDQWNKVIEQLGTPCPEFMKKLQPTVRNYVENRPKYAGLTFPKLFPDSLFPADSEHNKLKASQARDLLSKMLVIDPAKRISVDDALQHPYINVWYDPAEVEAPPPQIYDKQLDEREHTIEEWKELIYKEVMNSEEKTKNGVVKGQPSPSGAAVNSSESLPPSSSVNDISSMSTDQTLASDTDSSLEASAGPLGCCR
Chain of Mitogen-activated protein kinase 8 (P45983 whole entry): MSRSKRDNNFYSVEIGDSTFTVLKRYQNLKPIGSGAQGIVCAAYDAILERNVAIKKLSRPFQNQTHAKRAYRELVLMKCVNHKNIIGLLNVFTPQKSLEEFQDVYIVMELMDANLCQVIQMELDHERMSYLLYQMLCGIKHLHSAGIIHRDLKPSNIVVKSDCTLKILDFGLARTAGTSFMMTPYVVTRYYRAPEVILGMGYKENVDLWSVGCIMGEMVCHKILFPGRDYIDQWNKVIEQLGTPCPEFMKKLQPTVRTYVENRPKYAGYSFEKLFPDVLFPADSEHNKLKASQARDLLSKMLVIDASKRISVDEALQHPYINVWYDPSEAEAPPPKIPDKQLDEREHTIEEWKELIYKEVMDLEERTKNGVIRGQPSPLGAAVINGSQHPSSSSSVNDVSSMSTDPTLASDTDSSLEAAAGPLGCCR

Compound | IC50 [1] [nM] | IC50 [2] [nM] | further results
NC(=O)c1ccccc1Nc1cc(Oc2ccc(Cl)c(Cl)c2)ncc1C(F)(F)F | 680 | 100 | 
NC(=O)c1ccccc1Nc1ccnc(Oc2ccccc2)c1 | 330 | 520 | 
NC(=O)c1ccccc1Nc1ccnc(Oc2ccc(N3CCNCC3)cc2)c1 | 310 | 70 | half-life [3]: 1.5 h; clearance [4]: 38 mL/min/kg; AUC [5]: 0.3 µM·h; bioavailability [6]: 14%
COc1cccc(Oc2cc(Nc3ccccc3C(N)=O)c(C(F)(F)F)cn2)c1 | 38 | 70 | 
COc1ccccc1Oc1cc(Nc2ccccc2C(N)=O)c(C(F)(F)F)cn1 | 3200 | 3500 | 
CCOc1ccc(Oc2cc(Nc3ccccc3C(N)=O)c(C(F)(F)F)cn2)cc1 | 35 | 110 | 
CCCOc1ccc(Oc2cc(Nc3ccccc3C(N)=O)c(C(F)(F)F)cn2)cc1 | 100 | 140 | 
NC(=O)c1ccccc1Nc1cc(Oc2ccc(F)cc2)ncc1C(F)(F)F | 100 | 200 | 
NC(=O)c1ccccc1Nc1cc(Oc2ccc(Br)cc2)ncc1C(F)(F)F | 480 | 380 | 
NC(=O)c1ccccc1Nc1cc(Oc2cccc(Cl)c2)ncc1C(F)(F)F |  | 200 | 
COc1ccc(Oc2cc(Nc3ccccc3C(N)=O)c(C(F)(F)F)cn2)c(Cl)c1 | 740 | 100 | 
NC(=O)c1ccccc1Nc1cc(Oc2cccc3ccccc23)ncc1C(F)(F)F | 650 | 990 | 
NC(=O)c1ccccc1Nc1cc(Oc2ccc3ccccc3c2)ncc1C(F)(F)F |  | 320 | 
NC(=O)c1ccccc1Nc1cc(Oc2ccc(-n3cncn3)cc2)ncc1C(F)(F)F |  | 80 | half-life [3]: 1 h; clearance [4]: 6 mL/min/kg; AUC [5]: 9.1 µM·h; bioavailability [6]: 73%; concentration at 2 h [7]: 15.7 µM; concentration at 2 h [8]: 2.5 µM
NC(=O)c1ccccc1Nc1cc(Oc2ccc(-c3cccnc3)cc2)ncc1C(F)(F)F | 53 | 72 | 
COc1ccc(Oc2cc(Nc3cccc(Cl)c3C(N)=O)c(C(F)(F)F)cn2)cc1 |  | 2200 | 
COc1ccc(Oc2cc(Nc3cccc(OC)c3C(N)=O)c(C(F)(F)F)cn2)cc1 |  | 2200 | 
COc1ccc(Oc2cc(Nc3cc(F)ccc3C(N)=O)c(C(F)(F)F)cn2)cc1 |  | 49 | 
COc1ccc(Oc2cc(Nc3cc(Cl)ccc3C(N)=O)c(C(F)(F)F)cn2)cc1 |  | 78 | 
COc1ccc(Oc2cc(Nc3c(F)cccc3C(N)=O)c(C(F)(F)F)cn2)cc1 |  | 60 | 
COc1ccc(Oc2cc(Nc3c(Cl)cccc3C(N)=O)c(C(F)(F)F)cn2)cc1 |  | 160 | 
COc1ccc(Oc2cc(N(C)c3ccccc3C(N)=O)c(Cl)cn2)cc1 | > 20000 |  | 
CNC(=O)c1ccccc1Nc1cc(Oc2ccc(OC)cc2)ncc1Cl | 930 | 170 | 
COc1ccc(Oc2cc(Nc3ccccc3-c3nnc[nH]3)c(Cl)cn2)cc1 | 120 | 140 | 

Further compounds by falling IC50 [2], results first:

IC50 [1] [nM] | IC50 [2] [nM] | Compound | further results
26 | 48 | COc1ccc(Oc2cc(Nc3ccccc3C(N)=O)c(F)cn2)cc1 | 
44 | 48 | NC(=O)c1ccccc1Nc1cc(Oc2ccc3c(c2)OCO3)ncc1C(F)(F)F | 
 | 45 | COc1ccc(Oc2cc(Nc3ccc(F)cc3C(N)=O)c(C(F)(F)F)cn2)cc1 | 
27 | 37 | COc1ccc(Oc2cc(Nc3ccccc3C(N)=O)c(C(F)(F)F)cn2)cc1 | half-life [3]: 1 h; clearance [4]: 3 mL/min/kg; AUC [5]: 20.1 µM·h; bioavailability [6]: 79%; concentration at 2 h [7]: 10 µM; concentration at 2 h [8]: 5.2 µM
35 | 35 | NC(=O)c1ccccc1Nc1cc(Oc2ccc(OC(F)(F)F)cc2)ncc1C(F)(F)F | 
 | 34 | NC(=O)c1ccccc1Nc1cc(Oc2ccc(N3CCNCC3)cc2)ncc1C(F)(F)F | 
 | 30 | COc1ccc(Oc2cc(Nc3ccc(Cl)cc3C(N)=O)c(C(F)(F)F)cn2)cc1 | 
22 | 27 | CC(C)(C)Oc1ccc(Oc2cc(Nc3ccccc3C(N)=O)c(C(F)(F)F)cn2)cc1 | 
 | 17 | COc1ccc(Oc2cc(Nc3cc(OC)ccc3C(N)=O)c(C(F)(F)F)cn2)cc1 | 
8 | 15 | COc1ccc(Oc2cc(Nc3ccccc3C(N)=O)c(Cl)cn2)cc1 | half-life [3]: 1 h; clearance [4]: 13 mL/min/kg; AUC [5]: 6.3 µM·h; bioavailability [6]: 90%; concentration at 2 h [7]: 2.4 µM; concentration at 2 h [8]: 1.8 µM
4 | 7 | COc1ccc(Oc2ncc(Cl)c(Nc3ccccc3C(N)=O)n2)cc1 | half-life [3]: 0.5 h; clearance [4]: 22 mL/min/kg; AUC [5]: 1 µM·h; bioavailability [6]: 25%
